Data from US20130040882A1, “USE OF FIBROBLAST GROWTH FACTOR FRAGMENTS” (NOVARTIS AG, priority 2003, published 2013).

Tested on: uterine gene expression
Assay: Gene expression profiling (HGU133A) in the uterus of ovariectomized monkeys treated with estradiol, tamoxifen or raloxifene
Type: in vivo, cynomolgus monkeys (Macaca fascicularis)
Details: uterus, OVX monkeys

O=C(c1ccc(OCCN2CCCCC2)cc1)c1c(-c2ccc(O)cc2)sc2cc(O)ccc12 [raloxifene]
Fold change relative to SHAM control: Fibulin 1: 0.8 fold | Fold change relative to SHAM control: G1 to S phase transition 1: 0.7 fold | Fold change relative to SHAM control: Growth associated protein 43: 0.7 fold | Fold change relative to SHAM control: H2A histone family, member Y: 0.8 fold | Fold change relative to SHAM control: Heparan sulfate proteoglycan 2 (perlecan): 0.6 fold | Fold change relative to SHAM control: Histone H2A.F/Z variant: 1.0 fold | Fold change relative to SHAM control: Insulin-like growth factor binding protein 2, 36 kda: 0.7 fold | Fold change relative to SHAM control: Insulin-like growth factor binding protein 5: 1.1 fold | Fold change relative to SHAM control: Intercrine-alpha, mrna sequence: 0.8 fold | Fold change relative to SHAM control: Laminin, beta 1: 0.8 fold | Fold change relative to SHAM control: Latent transforming growth factor beta binding protein 1: 0.8 fold | Fold change relative to SHAM control: Matrix metalloproteinase 19: 0.2 fold | Fold change relative to SHAM control: Nidogen (enactin): 1.7 fold | Fold change relative to SHAM control: Osteoglycin (osteoinductive factor, mimecan): 0.7 fold | Fold change relative to SHAM control: Peroxiredoxin 1: 0.8 fold | Fold change relative to SHAM control: Pituitary tumour-transforming 1 interacting protein: 0.7 fold | Fold change relative to SHAM control: Procollagen C-endopeptidase enhancer: 0.8 fold | Fold change relative to SHAM control: Procollagen-proline, 2-oxoglutarate 4-dioxygenase (proline 4-hydroxylase), alpha polypeptide II: 0.8 fold | Fold change relative to SHAM control: SET domain, bifurcated 1: 0.8 fold | Fold change relative to SHAM control: SPARC-like 1 (mast9, hevin): 1.1 fold | Fold change relative to SHAM control: Secreted protein, acidic, cysteine-rich (osteonectin): 0.8 fold | Fold change relative to SHAM control: Serine (or cysteine) proteinase inhibitor, clade H (heat shock protein 47), member 1, (collagen binding protein 1): 0.7 fold | Fold change relative to SHAM control: Solute carrier family 22 (organic cation transporter), member 1-like: 0.8 fold | Fold change relative to SHAM control: Solute carrier family 25 (mitochondrial carrier; adenine nucleotide translocator), member 5: 0.8 fold | Fold change relative to SHAM control: Stem cell growth factor; lymphocyte secreted C-type lectin: 0.7 fold | Fold change relative to SHAM control: Tenascin C (hexabrachion): 0.8 fold | Fold change relative to SHAM control: Testis Enhanced Gene Transcript (Bax Inhibitor 1): 1.1 fold | Fold change relative to SHAM control: Thioredoxin interacting protein: 1.7 fold | Fold change relative to SHAM control: Transforming growth factor, beta-induced, 68 kda: 0.8 fold | Fold change relative to SHAM control: Ubiquinol-cytochrome c reductase, Rieske iron-sulfur polypeptide 1: 0.8 fold | Fold change relative to OVX: Insulin receptor (Table 46): 0.9 fold | Fold change relative to OVX: Insulin receptor (Table 51): 0.9 fold | Fold change relative to SHAM control: Insulin receptor (Table 51): 1.4 fold | Fold change relative to OVX: Fibronectin 1 (entry with OVX average 39): 2.3 fold | Fold change relative to OVX: Bone morphogenetic protein 1 (entry with OVX average 79): 1.2 fold | Fold change relative to OVX: Bone morphogenetic protein 1 (entry with OVX average 93): 1.4 fold | Fold change relative to OVX: Insulin-like growth factor 1 (somatomedin C) (entry with OVX average 102): 1.5 fold | Fold change relative to OVX: Fibrillin 1 (Marfan syndrome) (entry with OVX average 124): 2.1 fold | Fold change relative to OVX: Collagen, type I, alpha 2 (entry with OVX average 154): 3.2 fold | Fold change relative to OVX: Insulin-like growth factor 1 (somatomedin C) (entry with OVX average 156): 2.2 fold | Fold change relative to OVX: Solute carrier family 2 (facilitated glucose/fructose transporter), member 5 (entry with OVX average 171): 1.2 fold | Fold change relative to OVX: Solute carrier family 2 (facilitated glucose/fructose transporter), member 5 (entry with OVX average 176): 1.0 fold | Fold change relative to OVX: Collagen, type IV, alpha 1 (entry with OVX average 182): 1.8 fold | Fold change relative to OVX: Cyclin-dependent kinase inhibitor 1C (p57, Kip2) (entry with OVX average 224): 0.9 fold | Fold change relative to OVX: Insulin-like growth factor 1 (somatomedin C) (entry with OVX average 310): 2.3 fold | Fold change relative to OVX: Fibronectin 1 (entry with OVX average 419): 2.2 fold | Fold change relative to OVX: Cyclin-dependent kinase inhibitor 1C (p57, Kip2) (entry with OVX average 527): 1.2 fold | Fold change relative to OVX: Fibronectin 1 (entry with OVX average 586): 2.2 fold | Fold change relative to OVX: Fibronectin 1 (entry with OVX average 648): 1.7 fold | Fold change relative to OVX: Collagen, type IV, alpha 1 (entry with OVX average 690): 1.2 fold | Fold change relative to OVX: Fibronectin 1 (entry with OVX average 757): 1.9 fold | Fold change relative to OVX: Cyclin-dependent kinase inhibitor 1C (p57, Kip2) (entry with OVX average 762): 1.1 fold | Fold change relative to OVX: ATP synthase, H+ transporting, mitochondrial F0 complex, subunit c (subunit 9) isoform 3 (entry with OVX average 811): 1.2 fold | Fold change relative to OVX: Fibrillin 1 (Marfan syndrome) (entry with OVX average 874): 1.5 fold | Fold change relative to OVX: ATP synthase, H+ transporting, mitochondrial F0 complex, subunit c (subunit 9) isoform 3 (entry with OVX average 1007): 1.2 fold | Fold change relative to OVX: Collagen, type III, alpha 1 (Ehlers-Danlos syndrome type IV, autosomal dominant) (entry with OVX average 1084): 1.9 fold | Fold change relative to OVX: Collagen, type I, alpha 2 (entry with OVX average 2757): 2.2 fold | Fold change relative to OVX: Collagen, type III, alpha 1 (Ehlers-Danlos syndrome type IV, autosomal dominant) (entry with OVX average 3445): 2.0 fold | Fold change relative to OVX: H3 histone, family 3A (entry with OVX average 9495): 0.9 fold | Fold change relative to OVX: H3 histone, family 3A (entry with OVX average 9692): 1.0 fold | Fold change relative to SHAM control: Fibronectin 1 (entry with SHAM average 100): 0.9 fold | Fold change relative to SHAM control: Bone morphogenetic protein 1 (entry with SHAM average 143): 0.7 fold | Fold change relative to SHAM control: Cyclin-dependent kinase inhibitor 1C (p57, Kip2) (entry with SHAM average 201): 1.0 fold | Fold change relative to SHAM control: Bone morphogenetic protein 1 (entry with SHAM average 205): 0.6 fold | Fold change relative to SHAM control: Insulin-like growth factor 1 (somatomedin C) (entry with SHAM average 226): 0.7 fold | Fold change relative to SHAM control: Fibrillin 1 (Marfan syndrome) (entry with SHAM average 236): 1.1 fold | Fold change relative to SHAM control: Solute carrier family 2 (facilitated glucose/fructose transporter), member 5 (entry with SHAM average 291): 0.6 fold | Fold change relative to SHAM control: Solute carrier family 2 (facilitated glucose/fructose transporter), member 5 (entry with SHAM average 317): 0.7 fold | Fold change relative to SHAM control: Insulin-like growth factor 1 (somatomedin C) (entry with SHAM average 417): 0.8 fold | Fold change relative to SHAM control: Collagen, type IV, alpha 1 (entry with SHAM average 436): 0.7 fold | Fold change relative to SHAM control: Cyclin-dependent kinase inhibitor 1C (p57, Kip2) (entry with SHAM average 459): 1.4 fold | Fold change relative to SHAM control: Collagen, type I, alpha 2 (entry with SHAM average 493): 1.0 fold | Fold change relative to SHAM control: Insulin-like growth factor 1 (somatomedin C) (entry with SHAM average 581): 1.2 fold | Fold change relative to SHAM control: Cyclin-dependent kinase inhibitor 1C (p57, Kip2) (entry with SHAM average 660): 1.3 fold | Fold change relative to SHAM control: Fibronectin 1 (entry with SHAM average 920): 1.0 fold | Fold change relative to SHAM control: ATP synthase, H+ transporting, mitochondrial F0 complex, subunit c (subunit 9) isoform 3 (entry with SHAM average 1045): 0.9 fold | Fold change relative to SHAM control: Fibronectin 1 (entry with SHAM average 1089): 1.2 fold | Fold change relative to SHAM control: Collagen, type IV, alpha 1 (entry with SHAM average 1143): 0.7 fold | Fold change relative to SHAM control: Fibronectin 1 (entry with SHAM average 1288): 0.9 fold | Fold change relative to SHAM control: Fibronectin 1 (entry with SHAM average 1301): 1.1 fold | Fold change relative to SHAM control: ATP synthase, H+ transporting, mitochondrial F0 complex, subunit c (subunit 9) isoform 3 (entry with SHAM average 1355): 0.9 fold | Fold change relative to SHAM control: Fibrillin 1 (Marfan syndrome) (entry with SHAM average 1388): 1.0 fold | Fold change relative to SHAM control: Collagen, type III, alpha 1 (Ehlers-Danlos syndrome type IV, autosomal dominant) (entry with SHAM average 2992): 0.7 fold | Fold change relative to SHAM control: Collagen, type III, alpha 1 (Ehlers-Danlos syndrome type IV, autosomal dominant) (entry with SHAM average 7354): 1.0 fold | Fold change relative to SHAM control: Collagen, type I, alpha 2 (entry with SHAM average 7758): 0.8 fold | Fold change relative to SHAM control: H3 histone, family 3A (entry with SHAM average 9408): 0.9 fold | Fold change relative to SHAM control: H3 histone, family 3A (entry with SHAM average 10239): 1.0 fold
